Laboratory results as given in patent publication US4957909A, “Benzobicycloalkane derivatives as anticonvulsant neuroprotective agents” (American Home Products Corporation, priority 1990, dated 1990).

Assays:
[1] = test system: male Swiss-albino mice (CD-1 strain); experiment: NMDA antagonism in mice: NMDA-induced generalized myoclonus and death, ED50 for survival; assay type: in vivo; conditions: mice pretreated 30 min before NMDA 195 mg/kg i.p.
Protocol: The mice were pretreated with the representative test compounds followed thirty minutes later with NMDA (195 mg/kg, i.p., the ED90 dose for generalized myoclonus). The mice were then observed for 30 minutes, noting the latency of onset of generalized myoclonus (uncontrollable hind leg scratching or limbs and/or torso muscle jerking with loss of righting reflex) and death. From the latter, the ED50 for survival is determined.

[2] = test system: NMDA-induced neuronal release of norepinephrine; experiment: Inhibition of NMDA-induced [3H]norepinephrine release from rat hippocampal slices; assay type: cell-based; conditions: 100 μM concentration, NMDA 150 μM
Protocol: In addition, the compounds involved herein were established as inhibitors of NMDA-induced neuronal release of norepinephrine by showing that (-)-13β-methylamino-3-methoxy-5α-methyl-5,6,7,8,9,10,11,12-octahydro-5,11-meth-anobenzocyclodecene inhibits 89 percent of the NMDA-inducednorepinephrine release at 100 μM concentration in the following standard test procedure:
Rat hippocampal slices (0.5 mm thick) were incubated (37° C.) for 30 minutes in oxygenated (bubbled 95% O2 /5% CO2), physiological medium (containing 117 mM NaCl, 4.7 mM KCl, 11.5 mM glucose, 1.2 mM MgCl2, 10 μM pargyline, 1 mM ascorbate, 1.2 mM NaH2 PO4 and 25 mM NaHCO3, adjusted to pH 7.4). The slices were then washed with 0.9% NaCl and incubated in physiological medium with 0.1 μM [^3 H] norepinephrine (30 minutes, 37° C.). The slices were again washed with 0.9% NaCl and then placed in tubes (borosilicate glass, 12×75 mm) containing 0.5 ml Mg^+2 -free physiological medium with 50 μM corticosterone and 10 μM desipramine added to minimize norepinephrine reuptake. Samples were analyzed for [^3 H] content at 5 minute intervals. After 75 minutes, the inhibitor drug was added. Fifteen minutes later NMDA was added to a concentration of 150 μM. The amount of [^3 H] released was measured by liquid scintillation spectroscopy. […]

CNC1C2CCCCCC1(C)c1cc(OC)ccc1C2 (single isomer, unassigned; (-)) [(-)-13β-methylamino-3-methoxy-5α-methyl-5,6,7,8,9,10,11,12-octahydro-5,11-methanobenzocyclodecene]
ED50 for survival ([1]; i.p.): 56 mg/kg | ED50 for survival ([1]; p.o.): 97 mg/kg | inhibition of NMDA-induced norepinephrine release [2]: 89%
